Where a name gives a salt, the structure may show the parent alone.
Assays:
[1] = system: human keratinocytes cell line NCTC2544; test: MTT assay with induced oxidative stress (1 mM H2O2); format: cell-based; details: NCTC-2544, 0.5 μM compound, 16 h pre-treatment, then 1 mM H2O2 for 90 minutes, read-out: % viability (cell viability compared to not stressed control cells)
Text: In the intracellular environment, said formazan forms insoluble crystals to which the membranes are substantially impermeable: the molecule is therefore allowed to entry the cell, but not to exit it, if the molecule is correctly metabolized, i.e. if the electron transport chains are still metabolically active (that is equipped with an active reducing power).
This assay measures the viability of cells subjected to oxidative stress, and is therefore interpreted not only as an indicator of the antioxidant activity but also as an indicator of protection from oxidative stress and enhancement of cellular antioxidant defenses, in general terms being the test non-specific.
With the transformation of MTT, a change in color of the molecule from yellow to dark blue-violet is seen; therefore, to estimate the number of active mitochondria and, therefore, the number of viable cells in the sample, a colorimetric assay with a spectrophotometer read-out is used.
The protocol described below is used as a screening tool for the activity of the compounds of the invention object of the study, after induction of oxidative stress in the human keratinocytes cell line NCTC2544 through application of 1 mM hydrogen peroxide, according to a specific bibliographic reference (Rajapakse et al., 2004). The assay was conducted according to the method described by Coda and collaborators, with some modifications
The NCTC 2544 human keratinocytes were seeded in a 96-well plate at a density of 5*10^4 cells/well and incubated at 37° C. and 5% CO2, until reaching approximately 80% confluence.
The cells were then pretreated for 16 hours with the compounds of the invention to be tested in different concentrations, and with α-tocopherol, tested at the […] and 1 mM concentrations, as a reference. Cells treated with 1 mM H2O2 were used as negative control; however, cells maintained in culture in complete medium, served as the positive control.
At the end of the 16 hours of pre-treatment, the cells were washed with 1×PBS and incubated for 90 minutes with a 1 mM H2O2 solution (Sigma-Aldrich, St. Louis, Mo., USA) in serum-free medium at 37° C. and 5% CO2, in the dark.
Once the oxidative stress induction phase was completed, the evaluation of cell viability of the various samples was carried out, according to the method previously described (MTT assay).
The data were expressed as the percentage of cell viability compared to not stressed control cells (ctr), according to the following formula: % cell viability/ctr=(Abs sample/Abs ctr)*100
All analyzes were performed at least twice in duplicate.

[2] = system: TNF-α gene expression in NCTC 2544 human keratinocytes; test: In vitro inflammation test: LPS-induced TNF-α gene expression by qRT-PCR; format: cell-based; details: 5 μM compound, LPS 5 μg/ml, 24 h, NCTC 2544 keratinocytes
Method: A immortalized line of NCTC 2544 human keratinocytes (Perry V. P. et al., 1957), kept in culture in sterile flasks ([…]), incubated at 37° C. in a humid atmosphere with 5% CO2 in MEM (Minimum Essential Medium) culture medium added with 10% fetal bovine serum (FBS), 2 mM glutamine, 1% non-essential amino acids, in the presence of 1% of penicillin and streptomycin, is used.
When the cells (NCTC 2544 human keratinocytes) reached approximately 80% confluence, they were detached with trypsin/EDTA and seeded at a density of 1×10^6 cells/ml in 12-well plates, and then incubated at 37° C., 5% CO2 (24 h). […]
The activity of the compounds under study on TNF-α gene expression was assessed by relative quantitative RT-PCR (quantitative reverse transcription-polymerase chain reaction-qRT-PCR). […]
With the use of a spectrophotometer (Jenway UV/VIS MOD: 6715, BS-6715B0), the μg/mL concentrations of the total RNA extracted were calculated, at a wavelength of 260 nm.
Finally, the RNA integrity (2 μg/mL) was evaluated by means of an electrophoretic run on 1% agarose gel.
The RNA extracted and quantified was diluted at a concentration of 2 μg/mL and reverse-transcribed into cDNA. […]

| Structure (SMILES) | viability at 0.5 µM [1] [%] | anti-inflammatory activity (TNF-α assay, FIG. 2) [2] |
| --- | --- | --- |
| C/C=C/C=C/C=C/C(=O)O [octatrienoic acid arginine salt, Octatrienoic acid arginine salt] | 91.5 |  |
| CC=CC=CC=CC(=O)O [octatrienoic acid, 2,4,6-octatrienoic acid] | ~75 |  |
| C/C=C/C=C/C=C/C(=O)Oc1cc(/C=C/c2ccc(O)cc2)cc(OC(=O)/C=C/C=C/C=C/C)c1 [resveratrol di-octatrienoate, Resveratrol 3,5-di-octatrienoate] | 120 |  |
| Oc1ccc(C=Cc2cc(O)cc(O)c2)cc1 [resveratrol] | ~75 | proves not to have |

— patent US9738682B2, “Compounds with a combined antioxidant activity against free radicals together with an anti-inflammatory action, and pharmaceutical and cosmetic compositions containing them for the treatment of skin and hair” (GIULIANI S.P.A., priority 2014, dated 2017)
